Measured values taken from patent US11000033B2, “Ketone or oxime compound, and herbicide” (NISSAN CHEMICAL CORPORATION, priority 2014, dated 2021).

Key:
Format in all cases: in vivo
Apera spica-venti [1] = test: Test Example 5: herbicidal effect by foliage application, plastic box (symbol L); conditions: 320 g/ha, 3 weeks after application
Procedure, shortened: (§1)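 Herbicide, formulated as an emulsion and diluted in water, is sprayed onto the aerial parts of 14-day seedlings. These were grown at 25° C. to 30° C. in sterilized diluvial soil; effects are graded after 3 weeks.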

Avena fatua [2] = test: Test Example 4: herbicidal effect by soil treatment (symbol I); conditions: application herbicide amount 320 g/ha
Procedure, shortened: (§2)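 Seeds were sown in sterilized diluvial soil, covered with about 1.5 cm of soil, and the soil surface was sprayed with a water-diluted emulsion of the compound at a predetermined rate. Plants grew in a greenhouse at 25° C. to 30° C.; effects were scored visually 3 weeks after application.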

beet = test: Test Example 4: effect on crop by soil treatment (symbol f); conditions: application herbicide amount 320 g/ha
Procedure, shortened: (§3)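 Sterilized diluvial soil, spot sowing, ~1.5 cm soil cover; greenhouse 25–30° C.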

[3] = test system: Echinochloa crus-galli var. crus-galli; test: Test Example 4: herbicidal effect by soil treatment (symbol H); conditions: application herbicide amount 320 g/ha
Procedure, shortened: as §2

Chenopodium album = test: Test Example 5: herbicidal effect by foliage application, plastic box (symbol O); conditions: 320 g/ha, 3 weeks after application
Procedure, shortened: as §1

Veronica persica = test: Test Example 5: herbicidal effect by foliage application, plastic box (symbol R); conditions: 320 g/ha, 3 weeks after application
Procedure, shortened: as §1

Lolium multiflorum Lam. [4] = test: Test Example 4: herbicidal effect by soil treatment (symbol K); conditions: application herbicide amount 320 g/ha
Procedure, shortened: as §2

rapeseed [5] = test: Test Example 5: effect on crop by foliage application, plastic box (symbol g); conditions: 320 g/ha, 3 weeks after application
Procedure, shortened: (§4)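 A greenhouse held between 25° C. and 30° C. was used to grow plants sown spot-wise, beneath ~1.5 cm of soil, in boxes of sterilized diluvial soil.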

Monochoria vaginalis = test: Test Example 2: herbicidal activity, application during weed generation in submerged conditions (symbol C); conditions: Table 23; application herbicide amount 320 g/ha; grade 0-5 by criteria of Test Example 1
Procedure, shortened: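 Each pot contained alluvial soil under 4 cm of water with seeds of all three weeds sown together. Following growth at 25° C. to 30° C. to the one- to two-leaf stage, the floodwater received diluted emulsion at a predetermined amount; visual assessment followed at 3 weeks.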

Alopecurus myosuroides = test: Test Example 4: herbicidal effect by soil treatment (symbol J); conditions: application herbicide amount 320 g/ha
Procedure, shortened: as §2

rapeseed [6] = test: Test Example 4: effect on crop by soil treatment (symbol g); conditions: application herbicide amount 320 g/ha
Procedure, shortened: as §3

Stellaria media = test: Test Example 5: herbicidal effect by foliage application, plastic box (symbol P); conditions: 320 g/ha, 3 weeks after application
Procedure, shortened: as §1

wheat = test: Test Example 5: effect on crop by foliage application, plastic box (symbol e); conditions: 320 g/ha, 3 weeks after application
Procedure, shortened: as §4

rice = test: Test Example 4: effect on crop by soil treatment (symbol b); conditions: application herbicide amount 320 g/ha
Procedure, shortened: as §3

Digitaria ciliaris [7] = test: Test Example 5: herbicidal effect by foliage application, plastic box (symbol F); conditions: 320 g/ha, 3 weeks after application
Procedure, shortened: as §1

[8] = test system: directly sowed rice plant; test: Test Example 3: effect on crop by foliage application, Wagner pot (symbol b); conditions: application herbicide amount 320 g/ha
Procedure, shortened: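 Greenhouse culture at 25–30 °C of seeded rice, Cyperus difformis, Leptochloa chinensis and Echinochloa crus-galli var. crus-galli, in alluvial soil held under 0.1–0.5 cm of water in a Wagner pot.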

Abutilon theophrasti = test: Test Example 5: herbicidal effect by foliage application, plastic box (symbol M); conditions: 320 g/ha, 3 weeks after application
Procedure, shortened: as §1

Amaranthus retroflexus = test: Test Example 5: herbicidal effect by foliage application, plastic box (symbol N); conditions: 320 g/ha, 3 weeks after application
Procedure, shortened: as §1

Digitaria ciliaris [9] = test: Test Example 4: herbicidal effect by soil treatment (symbol F); conditions: application herbicide amount 320 g/ha
Procedure, shortened: as §2

Avena fatua [10] = test: Test Example 5: herbicidal effect by foliage application, plastic box (symbol I); conditions: 320 g/ha, 3 weeks after application
Procedure, shortened: as §1

Galium spurium = test: Test Example 5: herbicidal effect by foliage application, plastic box (symbol Q); conditions: 320 g/ha, 3 weeks after application
Procedure, shortened: as §1

Apera spica-venti [11] = test: Test Example 4: herbicidal effect by soil treatment (symbol L); conditions: application herbicide amount 320 g/ha
Procedure, shortened: as §2

Lolium multiflorum Lam. [12] = test: Test Example 5: herbicidal effect by foliage application, plastic box (symbol K); conditions: 320 g/ha, 3 weeks after application
Procedure, shortened: as §1

SMILES	L: Apera spica-venti, herbicidal effect (criteria of Test Example 1) (Apera spica-venti [1])	Herbicidal effect grade, I: Avena fatua (Avena fatua [2])	Effect on crop grade, f: beet (beet)	Herbicidal effect grade, H: Echinochloa crus-galli var. crus-galli [3]	O: Chenopodium album, herbicidal effect (criteria of Test Example 1) (Chenopodium album)	R: Veronica persica, herbicidal effect (criteria of Test Example 1) (Veronica persica)	Herbicidal effect grade, K: Lolium multiflorum Lam. (Lolium multiflorum Lam. [4])	g: rapeseed, effect on crop (criteria of Test Example 1) (rapeseed [5])	Herbicidal effect grade, C: Monochoria vaginalis (Monochoria vaginalis)	Herbicidal effect grade, J: Alopecurus myosuroides (Alopecurus myosuroides)	Effect on crop grade, g: rapeseed (rapeseed [6])	P: Stellaria media, herbicidal effect (criteria of Test Example 1) (Stellaria media)	e: wheat, effect on crop (criteria of Test Example 1) (wheat)	F: Digitaria ciliaris, herbicidal effect (criteria of Test Example 1) (Digitaria ciliaris [7])	effect on crop b (directly sowed rice plant), grade 0-5 [8]	M: Abutilon theophrasti, herbicidal effect (criteria of Test Example 1) (Abutilon theophrasti)	N: Amaranthus retroflexus, herbicidal effect (criteria of Test Example 1) (Amaranthus retroflexus)	I: Avena fatua, herbicidal effect (criteria of Test Example 1) (Avena fatua [10])	Q: Galium spurium, herbicidal effect (criteria of Test Example 1) (Galium spurium)	K: Lolium multiflorum Lam., herbicidal effect (criteria of Test Example 1) (Lolium multiflorum Lam. [12])	further results
CC(=O)CC1CC(O)=C(c2c(C)cc(-n3cccn3)cc2C)C1=O (stereo not drawn) [7-024]	1 (Herbicidal ratio of 5% or higher and lower than 20%)	0 (Herbicidal ratio of 5% or lower (almost no effect))	0 (Herbicidal ratio of 5% or lower (almost no effect))	0 (Herbicidal ratio of 5% or lower (almost no effect))	0 (Herbicidal ratio of 5% or lower (almost no effect))	0 (Herbicidal ratio of 5% or lower (almost no effect))	0 (Herbicidal ratio of 5% or lower (almost no effect))	2 (Herbicidal ratio of 20% or higher and lower than 40%)	0 (Herbicidal ratio of 5% or lower (almost no effect))	0 (Herbicidal ratio of 5% or lower (almost no effect))	0 (Herbicidal ratio of 5% or lower (almost no effect))	0 (Herbicidal ratio of 5% or lower (almost no effect))	0 (Herbicidal ratio of 5% or lower (almost no effect))	0 (Herbicidal ratio of 5% or lower (almost no effect))	3 (Herbicidal ratio of 40% or higher and lower than 70%)	0 (Herbicidal ratio of 5% or lower (almost no effect))	0 (Herbicidal ratio of 5% or lower (almost no effect))	2 (Herbicidal ratio of 20% or higher and lower than 40%)	0 (Herbicidal ratio of 5% or lower (almost no effect))	3 (Herbicidal ratio of 40% or higher and lower than 70%)	Effect on crop grade, b: directly sowed rice plant (rice): 5 (Herbicidal ratio of 90% or more (almost completely withered)); Herbicidal effect grade, F: Digitaria ciliaris (Digitaria ciliaris [9]): 4 (Herbicidal ratio of 70% or higher and lower than 90%); Herbicidal effect grade, L: Apera spica-venti (Apera spica-venti [11]): 0 (Herbicidal ratio of 5% or lower (almost no effect))
CC(=O)CC1CC(O)=C(c2c(C)cc(-c3ccc(C(F)(F)F)cc3)cc2C)C1=O (stereo not drawn) [7-005]	4 (Herbicidal ratio of 70% or higher and lower than 90%)	0 (Herbicidal ratio of 5% or lower (almost no effect))	0 (Herbicidal ratio of 5% or lower (almost no effect))	0 (Herbicidal ratio of 5% or lower (almost no effect))	3 (Herbicidal ratio of 40% or higher and lower than 70%)	0 (Herbicidal ratio of 5% or lower (almost no effect))	2 (Herbicidal ratio of 20% or higher and lower than 40%)	0 (Herbicidal ratio of 5% or lower (almost no effect))	0 (Herbicidal ratio of 5% or lower (almost no effect))	0 (Herbicidal ratio of 5% or lower (almost no effect))	0 (Herbicidal ratio of 5% or lower (almost no effect))	1 (Herbicidal ratio of 5% or higher and lower than 20%)	0 (Herbicidal ratio of 5% or lower (almost no effect))	5 (Herbicidal ratio of 90% or more (almost completely withered))	5 (Herbicidal ratio of 90% or more (almost completely withered))	0 (Herbicidal ratio of 5% or lower (almost no effect))	0 (Herbicidal ratio of 5% or lower (almost no effect))	2 (Herbicidal ratio of 20% or higher and lower than 40%)	0 (Herbicidal ratio of 5% or lower (almost no effect))	5 (Herbicidal ratio of 90% or more (almost completely withered))	Effect on crop grade, b: directly sowed rice plant (rice): 1 (Herbicidal ratio of 5% or higher and lower than 20%); Herbicidal effect grade, F: Digitaria ciliaris (Digitaria ciliaris [9]): 5 (Herbicidal ratio of 90% or more (almost completely withered)); Herbicidal effect grade, L: Apera spica-venti (Apera spica-venti [11]): 0 (Herbicidal ratio of 5% or lower (almost no effect))
CON=C(C)CC1CC(OC(=O)COc2ccccc2)=C(c2c(C)cc(-c3ccc(Cl)cc3)cc2C)C1=O (mixture of isomers) [6-061]	5 (Herbicidal ratio of 90% or more (almost completely withered))				4 (Herbicidal ratio of 70% or higher and lower than 90%)	4 (Herbicidal ratio of 70% or higher and lower than 90%)		4 (Herbicidal ratio of 70% or higher and lower than 90%)	2 (Herbicidal ratio of 20% or higher and lower than 40%)			3 (Herbicidal ratio of 40% or higher and lower than 70%)	5 (Herbicidal ratio of 90% or more (almost completely withered))	5 (Herbicidal ratio of 90% or more (almost completely withered))	5 (Herbicidal ratio of 90% or more (almost completely withered))	4 (Herbicidal ratio of 70% or higher and lower than 90%)	1 (Herbicidal ratio of 5% or higher and lower than 20%)	5 (Herbicidal ratio of 90% or more (almost completely withered))	3 (Herbicidal ratio of 40% or higher and lower than 70%)	5 (Herbicidal ratio of 90% or more (almost completely withered))	I: Avena fatua, herbicidal effect grade (Avena fatua [2]): 4 (Herbicidal ratio of 70% or higher and lower than 90%); f: beet, effect on crop grade (beet): 0 (Herbicidal ratio of 5% or lower (almost no effect)); H: Echinochloa crus-galli var. crus-galli, herbicidal effect grade [3]: 5 (Herbicidal ratio of 90% or more (almost completely withered)); K: Lolium multiflorum Lam., herbicidal effect grade (Lolium multiflorum Lam. [4]): 5 (Herbicidal ratio of 90% or more (almost completely withered)); J: Alopecurus myosuroides, herbicidal effect grade (Alopecurus myosuroides): 5 (Herbicidal ratio of 90% or more (almost completely withered)); g: rapeseed, effect on crop grade (rapeseed [6]): 3 (Herbicidal ratio of 40% or higher and lower than 70%); b: directly sowed rice plant, effect on crop grade (rice): 5 (Herbicidal ratio of 90% or more (almost completely withered)); F: Digitaria ciliaris, herbicidal effect grade (Digitaria ciliaris [9]): 5 (Herbicidal ratio of 90% or more (almost completely withered)); L: Apera spica-venti, herbicidal effect grade (Apera spica-venti [11]): 5 (Herbicidal ratio of 90% or more (almost completely withered))
